Here are results for eight compounds from patent US4816449A, “Immunotherapeutic anti-inflammatory peptide agents” (Immunetech Pharmaceuticals, priority 1986, dated 1989).

Where a SMILES comes first, the peptide text is derived from it. Where no end group is shown, it is not given here.

Data set [1] has as its system human monocyte IgG Fc receptors. The settings on record: cited from earlier work.
Data set [2] relates to macrophage IgG Fc receptors of mice. To be noted: Stanworth, Mol. Immunol. 19, 1245 (1982); cited from earlier work.
Data set [3] has as its target T1, IgE Fc receptors on a human lymphoblastoid cell line (wil-2wt) (Homo sapiens, UniProt P06734).
T1 construct: IgE Fc receptors on a human lymphoblastoid cell line (wil-2wt); host or cells: wil-2wt human lymphoblastoid cell line (endogenous receptor)
T1 sequence (P06734 1-321): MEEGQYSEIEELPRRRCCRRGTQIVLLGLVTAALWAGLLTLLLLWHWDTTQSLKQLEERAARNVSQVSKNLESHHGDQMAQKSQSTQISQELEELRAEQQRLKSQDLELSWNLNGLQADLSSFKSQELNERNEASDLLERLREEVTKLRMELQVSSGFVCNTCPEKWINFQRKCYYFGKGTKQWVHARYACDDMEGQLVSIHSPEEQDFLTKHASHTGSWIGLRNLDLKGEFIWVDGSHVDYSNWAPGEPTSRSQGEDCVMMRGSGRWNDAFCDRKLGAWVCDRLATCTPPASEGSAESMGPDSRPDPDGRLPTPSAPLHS
The settings on record: Hamburger, Immunology 38, 781 (1979); cited from earlier work.

Data set [4] relates to human natural killer (NK) cell-induced cytotoxicity against K562 human erythroleukemia cells. The data set can be described thus: natural killer (NK) cell assay, chromium 51 release. The format is cell-based. The method, then:
1. To calculate percent inhibition, the average of the three dilutions of
2. N K effector cells were human mononuclear cells freshly isolated by
when incubated with normal human mononuclear cells (lymphocytes and monocytes) separated by ficoll-metronidazole gradient. […] E., et al., J. Clin. Invest. 67:1324, 1981).
The target cells used were a human erythroleukemia cell line K562 which has molecular structures recognized by NK cells. The K562 targets were prepared by incubating them with the radioactive isotope chromium 51 which is incorporated within the cells. The cells were then washed to remove externally adherent chromium 51 and 20,000 K562 cells were added to 400,000, 200,000 and 100,000 mononuclear cells to provide NK killer-to-target ratio of 20 to 1, 10 to 1, and 5 to 1, respectively, in a final volume of 200 microliters. After a 3-hour incubation at 37° C. in a 5% CO2 atmosphere, the amount of chromium 51 in the supernatent (released from dead target cells) was counted to quantitate the amount of NK killing activity. The killing activity of peptide-treatedcells was compared to non-peptide treated cells to assess the peptide's effect on NK killing activity.

The test system of data set [5] is human mast cells. The settings on record: Stanworth et al. 1979; cited from earlier work.
Data set [6] has as its system rodent mast cells. To be noted: Stanworth et al. 1979; cited from earlier work.
Data set [7] relates to mouse macrophages. The settings on record: Stanworth, Mol. Immunol. 19, 1245 (1982); cited from earlier work.
[8] abbreviates: peptide 100 μg/ml, (killer-to-target ratio 20 to 1).

As to “QYDSTYR [peptide identical to IgG aa 295-301]”, in data set [1], the “blocking of IgG binding to human monocyte IgG Fc receptors” value was “could slightly block”.
“YSKLTVDKSR [decapeptide from human IgG, identical to IgG aa 407-416]”: in data set [2], the “blocking of human IgG binding to macrophage IgG Fc receptors of mice” value was “blocked human IgG binding”.
Turning to “PDARHS [hexapeptide derived from Cε 4 at aa 476-481]”, in data set [3], the “blocking of human IgE-binding to IgE Fc receptors on wil-2wt cells” value is reported as “could block”.
As for `C[C@H](NC(=O)[C@@H](N)CC(=O)O)C(=O)N[C@@H](CCCNC(=N)N)C(=O)N[C@@H](Cc1c[nH]cn1)C(=O)O` [Asp--Ala--Arg--His, Asp-Ala-Arg-His] (H-DARH-OH), the “% cytotoxicity” value in data set [4] (peptide 25 μg/ml, 5 to 1) worked out at 6.8%; in data set [4] (peptide 25 μg/ml, 10 to 1), 12.9%; in data set [4] (peptide 25 μg/ml, 20 to 1) it was 19.3%; in data set [4] (peptide 50 μg/ml, 5 to 1) it was 7.5%; in data set [4] (peptide 50 μg/ml, 10 to 1), 12.8%; in data set [4] (peptide 50 μg/ml, 20 to 1), 13.8%. Besides, the “% cytotoxicity” value in data set [4] (peptide 100 μg/ml, 5 to 1) worked out at 10.5%; in data set [4] (peptide 100 μg/ml, 10 to 1), 16.4%; in data set [4] (setting [8]) it was 24.5%.
As to “PRKTKGSGFFVF [peptide identical to portion of Cε 4 of human IgE, aa 495-506]”, the “degranulation of human mast cells” value in data set [5] was “able to cause degranulation”. Also, in data set [6], the “degranulation of rodent mast cells” value is “able to cause degranulation”.
In the case of `C[C@H](N)C(=O)N[C@@H](CCCNC(=N)N)C(=O)N[C@@H](Cc1c[nH]cn1)C(=O)N[C@@H](CO)C(=O)O` [Ala--Arg--His--Ser, Ala-Arg-His-Ser] (H-ARHS-OH), the “% cytotoxicity” value in data set [4] (peptide 25 μg/ml, 5 to 1) is recorded as 12.5%; in data set [4] (peptide 25 μg/ml, 10 to 1), 19.4%; in data set [4] (peptide 25 μg/ml, 20 to 1), 24.8%; in data set [4] (peptide 50 μg/ml, 5 to 1), 10.4%; in data set [4] (peptide 50 μg/ml, 10 to 1), 20.7%; in data set [4] (peptide 50 μg/ml, 20 to 1), 26.3%. The “% cytotoxicity” value in data set [4] (peptide 100 μg/ml, 5 to 1) stood at 10.6%; in data set [4] (peptide 100 μg/ml, 10 to 1) it was 18.5%; in data set [4] (setting [8]), 21.8%.
`C[C@H](NC(=O)[C@H](CC(=O)O)NC(=O)[C@@H]1CCCN1)C(=O)N[C@@H](CCCNC(=N)N)C(=O)O` [Pro--Asp--Ala-- Arg, Pro-Asp-Ala-Arg] (H-PDAR-OH): the “% cytotoxicity” value in data set [4] (peptide 25 μg/ml, 5 to 1) turned out to be 10.1%; in data set [4] (peptide 25 μg/ml, 10 to 1) it was 17.8%; in data set [4] (peptide 25 μg/ml, 20 to 1) it was 22.7%; in data set [4] (peptide 50 μg/ml, 5 to 1), 10.3%; in data set [4] (peptide 50 μg/ml, 10 to 1), 15.5%; in data set [4] (peptide 50 μg/ml, 20 to 1), 23.1%. The “% cytotoxicity” value came to 5.6% in data set [4] (peptide 100 μg/ml, 5 to 1); 10.4% in data set [4] (peptide 100 μg/ml, 10 to 1); 17.1% in data set [4] (setting [8]).
As to “VFSRLEVTRAE [peptide identical to a portion of Cε 4 of human IgE at aa 505-515]”, the “effect on binding of 125I-human IgG to mouse macrophages” value in data set [7] was “marked enhancement”.
